Reference: patent US20230107983A1, “COMPOUND ISOLATED FROM TORILIDIS FRUCTUS, AND ANTICANCER PHARMACEUTICAL COMPOSITION CONTAINING SAME AS ACTIVE INGREDIENT” (PHARMA-GENE CO., LTD., priority 2020, published 2023)

How the values were obtained:
[1] = tested on: breast cancer(MDA-MB-231) cell line; assay: WST-1 assay, cell viability of breast cancer cell line; type: cell-based; details: 10-100 µg/Mℓ, 24 hours, FIG. 5
Method: (§1) The cytotoxicity of the Tr-9 compound to six cancer cell lines was confirmed. Lung cancer(A549), gastric cancer(AGS), liver cancer(Hep3B)), breast cancer(MDA-MB-231), colorectal cancer(HCT116) and pancreatic cancer(BxPC-3) cell lines and fibroblasts were aliquoted in a 96-well plate in an amount of 5×10^3 cells/well, and the novel compound Tr-9 was treated thereto at a concentration of 10, 20, 40, 60, 80, 100 µg/Mℓ for 24 hours, respectively. Lung cancer cell line was further treated at a concentration of 100 µg/Mℓ for 24 hours, 48 hours and 72 hours.
(§2) Then, the amount of living cells was measured using WST(high sensitive Water Soluble Tetrazolium salt). WST reacts with dehydrogenase in living cells and produces orange-colored watersoluble formazan. Since dehydrogenase that reacts with WST is an enzyme present in the mitochondrial electron transport chain of metabolically active cells and is effective only in living cells, the production of formazan is proportional to the number of living cells. Therefore, the absorbance at 450 nm was measured to confirm the cell viability through the formation of formazan.

[2] = tested on: liver cancer(Hep3B) cell line; assay: WST-1 assay, cell viability of liver cancer cell line; type: cell-based; details: 10-100 µg/Mℓ, 24 hours, FIG. 6
Method: as §1, §2

[3] = tested on: gastric cancer(AGS) cell line; assay: WST-1 assay, cell viability of gastric cancer cell line; type: cell-based; details: 10-100 µg/Mℓ, 24 hours, FIG. 4
Method: as §1, §2

[4] = tested on: Lung cancer(A549) cell line; assay: WST-1 assay, cell viability of lung cancer cell line; type: cell-based, human; details: 10-100 µg/Mℓ, 24 hours, FIG. 3
Method: as §1, §2

[5] = tested on: pancreatic cancer(BxPC-3) cell line; assay: WST-1 assay, cell viability of pancreatic cancer cell line; type: cell-based; details: 10-100 µg/Mℓ, 24 hours, FIG. 8
Method: as §1, §2

[6] = tested on: colorectal cancer(HCT116) cell line; assay: WST-1 assay, cell viability of colorectal cancer cell line; type: cell-based, human; details: 10-100 µg/Mℓ, 24 hours, FIG. 7
Method: as §1, §2

Measured: cell viability

C=C(C)C1CC2=CC(=O)CC2C(C)CC1OC(=O)/C(C)=C\C (stereo not drawn) [Tr-10]
decreases the cell viability: all assays above
